Test results: patent US20120204273A1, “COMPOSITIONS RELATING TO A PHOSPHOPROTEIN AND METHODS OF USE” (SANFORD-BURNHAM MEDICAL RESEARCH INSTITUTE, priority 2010, published 2012)

How the values were obtained:
3T3-L1 adipocytes = experiment: Endogenous GLUT4 accumulation in the TIRF zone (fixed adipocytes); assay type: cell-based, mouse; conditions: 100 nM insulin; scrambled siRNA
Method: FIG. 2, panels A-C show knockdown of CDP138 in 3T3-L1 adipocytes inhibits insulin-stimulated glucose transport (A) and myc-GLUT4-GFP translocation (B), but not endogenous GLUT4 movement to the periphery detected in TIRF zone (C). (A): Differentiated adipocytes at day 5 were transfected with siRNAs against mouse 5730419I09Rik or the scrambled siRNA (Scr) as described earlier (Jiang et al., 2003) for 60 hrs, then serum starved overnight. Cells were then treated with or without insulin (1 nM and 100 nM) for 30 min for the glucose uptake assay, or 15 min for immunoblotting of CDP138, pAkt, Akt and β-actin. […] Cell surface Myc-GLUT4-GFP was detected with anti-myc monoclonal Ab (9E10) and Alexa Fluor 568-labeled goat anti-mouse IgG in non-permeablized cells. The Myc signal and GFP signal were quantified as previously described (Jiang et al., 2002). […] GLUT4 was detected with a goat anti-GLUT4 Ab and Alexa Fluor 488-conjugated donkey anti-goat Ab in permeabilized cells. […] We also quantified endogenous GLUT4 redistribution to the PM using total internal reflection fluorescence microscopy (TIRFM) with a setting of about 100 nm distance from the coverslip (FIG. 2C, top panel). For this experiment, endogenous GLUT4 was detected by immunofluorescent staining with a goat anti-GLUT4 Ab that recognizes the cytoplasmic C-terminus of GLUT4. […]

HA-CDP138 = experiment: Phosphorylation of HA-CDP138 in CHO-T cells (anti-HA IP, PAS antibody blot); assay type: cell-based, hamster; conditions: insulin 100 nM, 15 min
Source text: FIG. 1, panels A-D, show an uncharacterized C2 domain-containing protein encoded by 5730419I09Rik is a novel phosphoprotein identified in insulin-stimulated adipocytes using a SILAC phosphoproteomic approach. (A): Schematic procedure for SILAC quantitative proteomics used for identification and quantification of peptide from CDP138 (5730419I09Rik). Top right panel: quantification of CDP138 peptide from different groups of adipocytes. Lower right panel: Schematic diagram of CDP138 and the identified phosphorylation sites. (B): Confirmation of CDP138 phosphorylation induced by insulin. CHO-T cells expressing HA-CDP138, or differentiated 3T3-L1 adipocytes were treated with or without insulin (100 nM) for 15 min. A third sample was pretreated with wortmannin (100 nM, WM) for 20 min or LY294002 (50 μM, LY) for 1 hour before insulin stimulation. […] CDP138, pS473-Akt and Akt protein were also detected with total cell lysates. […] Whole cell extracts (25 μg total protein) from different tissues (lean mice, left panel) and epididymal fat pads from both ob/ob and lean mice (24 weeks old, Jackson Lab, Bar Harbor, Me.; middle panel) were analyzed by immunoblotting with antibodies against CDP138, IRS-1, Akt, Erk1/2, and β-actin. Right panel: quantification of CDP138 protein levels in fat tissues from lean and obese mice. […]

insulin
enhancement of GLUT4 signal in the TIRF zone (3T3-L1 adipocytes): about 2.5 fold | phosphorylation of HA-tagged CDP138 detected with PAS antibodies (HA-CDP138): stimulates phosphorylation
